Laboratory results: ChEMBL document CHEMBL3045835, “Comparative study of conventional and microwave-assisted synthesis of some Schiff bases and their potential as antimicrobial agents” (2012)

Legend:
Assay type in all cases: functional
[1] = system: Bacillus pumilus; assay: Antibacterial activity against Bacillus pumilus MTCC 1456 at 1000 ug/ml after 18 hr by cup-plate method; settings: MTCC 1456, 18 h, read-out: DIZ
[2] = system: Bacillus subtilis; assay: Antibacterial activity against Bacillus subtilis MTCC 441 at 1000 ug/ml after 18 hr by cup plate method; settings: MTCC 441, 18 h, read-out: DIZ
[3] = system: Staphylococcus aureus; assay: Antibacterial activity against Staphylococcus aureus MTCC 1430 after 24 hr by broth dilution method; settings: MTCC 1430, 24 h
[4] = system: Penicillium chrysogenum; assay: Antifungal activity against Penicillium chrysogenum MTCC 161 at 100 ug/ml after 18 hr by cup-plate method; settings: MTCC 161, 18 h, read-out: DIZ
[5] = system: Staphylococcus aureus; assay: Antibacterial activity against Staphylococcus aureus MTCC 1430 at 100 ug/ml after 18 hr by cup-plate method; settings: MTCC 1430, 18 h, read-out: DIZ
[6] = system: Pseudomonas fluorescens; assay: Antibacterial activity against Pseudomonas fluorescens MTCC 2421 at 1500 ug/ml after 18 hr by cup-plate method; settings: MTCC 2421, 18 h, read-out: DIZ
[7] = system: Bacillus pumilus; assay: Antibacterial activity against Bacillus pumilus MTCC 1456 at 500 ug/ml after 18 hr by cup-plate method; settings: MTCC 1456, 18 h, read-out: DIZ
[8] = system: Pseudomonas aeruginosa; assay: Antibacterial activity against Pseudomonas aeruginosa MTCC 424 after 24 hr by broth dilution method; settings: MTCC 424, 24 h
[9] = system: Pseudomonas aeruginosa; assay: Antibacterial activity against Pseudomonas aeruginosa MTCC 424 at 200 ug/ml after 18 hr by cup-plate method; settings: MTCC 424, 18 h, read-out: DIZ
[10] = system: Staphylococcus aureus; assay: Antibacterial activity against Staphylococcus aureus MTCC 1430 at 1000 ug/ml after 18 hr by cup-plate method; settings: MTCC 1430, 18 h, read-out: DIZ
[11] = system: Penicillium chrysogenum; assay: Antifungal activity against Penicillium chrysogenum MTCC 161 at 1000 ug/ml after 18 hr by cup-plate method; settings: MTCC 161, 18 h, read-out: DIZ
[12] = system: Pseudomonas fluorescens; assay: Antibacterial activity against Pseudomonas fluorescens MTCC 2421 at 500 ug/ml after 18 hr by cup-plate method; settings: MTCC 2421, 18 h, read-out: DIZ
[13] = system: Staphylococcus aureus; assay: Antibacterial activity against Staphylococcus aureus MTCC 1430 at 200 ug/ml after 18 hr by cup-plate method; settings: MTCC 1430, 18 h, read-out: DIZ
[14] = system: Aspergillus niger; assay: Antifungal activity against Aspergillus niger MTCC 2546 at 1000 ug/ml after 18 hr by cup-plate method; settings: MTCC 2546, 18 h, read-out: DIZ
[15] = system: Penicillium chrysogenum; assay: Antifungal activity against Penicillium chrysogenum MTCC 161 at 200 ug/ml after 18 hr by cup-plate method; settings: MTCC 161, 18 h, read-out: DIZ
[16] = system: Bacillus pumilus; assay: Antibacterial activity against Bacillus pumilus MTCC 1456 after 24 hr by broth dilution method; settings: MTCC 1456, 24 h
[17] = system: Penicillium chrysogenum; assay: Antifungal activity against Penicillium chrysogenum MTCC 161 at 500 ug/ml after 18 hr by cup-plate method; settings: MTCC 161, 18 h, read-out: DIZ
[18] = system: Bacillus pumilus; assay: Antibacterial activity against Bacillus pumilus MTCC 1456 at 100 ug/ml after 18 hr by cup-plate method; settings: MTCC 1456, 18 h, read-out: DIZ
[19] = system: Pseudomonas aeruginosa; assay: Antibacterial activity against Pseudomonas aeruginosa MTCC 424 at 1500 ug/ml after 18 hr by cup-plate method; settings: MTCC 424, 18 h, read-out: DIZ
[20] = system: Micrococcus luteus; assay: Antibacterial activity against Micrococcus luteus MTCC 1538 at 500 ug/ml after 18 hr by cup-plate method; settings: MTCC 1538, 18 h, read-out: DIZ
[21] = system: Aspergillus niger; assay: Antifungal activity against Aspergillus niger MTCC 2546 at 500 ug/ml after 18 hr by cup-plate method; settings: MTCC 2546, 18 h, read-out: DIZ
[22] = system: Pseudomonas fluorescens; assay: Antibacterial activity against Pseudomonas fluorescens MTCC 2421 at 200 ug/ml after 18 hr by cup-plate method; settings: MTCC 2421, 18 h, read-out: DIZ
[23] = system: Pseudomonas fluorescens; assay: Antibacterial activity against Pseudomonas fluorescens MTCC 2421 after 24 hr by broth dilution method; settings: MTCC 2421, 24 h
[24] = system: Escherichia coli; assay: Antibacterial activity against Escherichia coli MTCC 1573 at 1000 ug/ml after 18 hr by cup-plate method; settings: MTCC 1573, 18 h, read-out: DIZ
[25] = system: Bacillus subtilis; assay: Antibacterial activity against Bacillus subtilis MTCC 441 at 100 ug/ml after 18 hr by cup plate method; settings: MTCC 441, 18 h, read-out: DIZ
[26] = system: Micrococcus luteus; assay: Antibacterial activity against Micrococcus luteus MTCC 1538 at 1500 ug/ml after 18 hr by cup-plate method; settings: MTCC 1538, 18 h, read-out: DIZ
[27] = system: Bacillus pumilus; assay: Antibacterial activity against Bacillus pumilus MTCC 1456 at 1500 ug/ml after 18 hr by cup-plate method; settings: MTCC 1456, 18 h, read-out: DIZ
[28] = system: Bacillus subtilis; assay: Antibacterial activity against Bacillus subtilis MTCC 441 at 200 ug/ml after 18 hr by cup plate method; settings: MTCC 441, 18 h, read-out: DIZ
[29] = system: Aspergillus niger; assay: Antifungal activity against Aspergillus niger MTCC 2546 after 24 hr by broth dilution method; settings: MTCC 2546, 24 h
[30] = system: Escherichia coli; assay: Antibacterial activity against Escherichia coli MTCC 1573 after 24 hr by broth dilution method; settings: MTCC 1573, 24 h
[31] = system: Pseudomonas aeruginosa; assay: Antibacterial activity against Pseudomonas aeruginosa MTCC 424 at 1000 ug/ml after 18 hr by cup-plate method; settings: MTCC 424, 18 h, read-out: DIZ
[32] = system: Bacillus subtilis; assay: Antibacterial activity against Bacillus subtilis MTCC 441 after 24 hr by broth dilution method; settings: MTCC 441, 24 h
[33] = system: Pseudomonas fluorescens; assay: Antibacterial activity against Pseudomonas fluorescens MTCC 2421 at 1000 ug/ml after 18 hr by cup-plate method; settings: MTCC 2421, 18 h, read-out: DIZ
[34] = system: Pseudomonas aeruginosa; assay: Antibacterial activity against Pseudomonas aeruginosa MTCC 424 at 100 ug/ml after 18 hr by cup-plate method; settings: MTCC 424, 18 h, read-out: DIZ
[35] = system: Escherichia coli; assay: Antibacterial activity against Escherichia coli MTCC 1573 at 200 ug/ml after 18 hr by cup-plate method; settings: MTCC 1573, 18 h, read-out: DIZ
[36] = system: Bacillus subtilis; assay: Antibacterial activity against Bacillus subtilis MTCC 441 at 500 ug/ml after 18 hr by cup plate method; settings: MTCC 441, 18 h, read-out: DIZ
[37] = system: Micrococcus luteus; assay: Antibacterial activity against Micrococcus luteus MTCC 1538 at 100 ug/ml after 18 hr by cup-plate method; settings: MTCC 1538, 18 h, read-out: DIZ
[38] = system: Micrococcus luteus; assay: Antibacterial activity against Micrococcus luteus MTCC 1538 at 1000 ug/ml after 18 hr by cup-plate method; settings: MTCC 1538, 18 h, read-out: DIZ
[39] = system: Escherichia coli; assay: Antibacterial activity against Escherichia coli MTCC 1573 at 1500 ug/ml after 18 hr by cup-plate method; settings: MTCC 1573, 18 h, read-out: DIZ
[40] = system: Aspergillus niger; assay: Antifungal activity against Aspergillus niger MTCC 2546 at 100 ug/ml after 18 hr by cup-plate method; settings: MTCC 2546, 18 h, read-out: DIZ
[41] = system: Penicillium chrysogenum; assay: Antifungal activity against Penicillium chrysogenum MTCC 161 after 24 hr by broth dilution method; settings: MTCC 161, 24 h
[42] = system: Penicillium chrysogenum; assay: Antifungal activity against Penicillium chrysogenum MTCC 161 at 1500 ug/ml after 18 hr by cup-plate method; settings: MTCC 161, 18 h, read-out: DIZ
[43] = system: Micrococcus luteus; assay: Antibacterial activity against Micrococcus luteus MTCC 1538 at 200 ug/ml after 18 hr by cup-plate method; settings: MTCC 1538, 18 h, read-out: DIZ
[44] = system: Staphylococcus aureus; assay: Antibacterial activity against Staphylococcus aureus MTCC 1430 at 1500 ug/ml after 18 hr by cup-plate method; settings: MTCC 1430, 18 h, read-out: DIZ
[45] = system: Pseudomonas aeruginosa; assay: Antibacterial activity against Pseudomonas aeruginosa MTCC 424 at 500 ug/ml after 18 hr by cup-plate method; settings: MTCC 424, 18 h, read-out: DIZ
[46] = system: Staphylococcus aureus; assay: Antibacterial activity against Staphylococcus aureus MTCC 1430 at 500 ug/ml after 18 hr by cup-plate method; settings: MTCC 1430, 18 h, read-out: DIZ
[47] = system: Bacillus subtilis; assay: Antibacterial activity against Bacillus subtilis MTCC 441 at 1500 ug/ml after 18 hr by cup plate method; settings: MTCC 441, 18 h, read-out: DIZ
[48] = system: Pseudomonas fluorescens; assay: Antibacterial activity against Pseudomonas fluorescens MTCC 2421 at 100 ug/ml after 18 hr by cup-plate method; settings: MTCC 2421, 18 h, read-out: DIZ
[49] = system: Bacillus pumilus; assay: Antibacterial activity against Bacillus pumilus MTCC 1456 at 200 ug/ml after 18 hr by cup-plate method; settings: MTCC 1456, 18 h, read-out: DIZ
[50] = system: Aspergillus niger; assay: Antifungal activity against Aspergillus niger MTCC 2546 at 1500 ug/ml after 18 hr by cup-plate method; settings: MTCC 2546, 18 h, read-out: DIZ
[51] = system: Aspergillus niger; assay: Antifungal activity against Aspergillus niger MTCC 2546 at 200 ug/ml after 18 hr by cup-plate method; settings: MTCC 2546, 18 h, read-out: DIZ
[52] = system: Escherichia coli; assay: Antibacterial activity against Escherichia coli MTCC 1573 at 500 ug/ml after 18 hr by cup-plate method; settings: MTCC 1573, 18 h, read-out: DIZ
[53] = system: Escherichia coli; assay: Antibacterial activity against Escherichia coli MTCC 1573 at 100 ug/ml after 18 hr by cup-plate method; settings: MTCC 1573, 18 h, read-out: DIZ
[54] = system: Micrococcus luteus; assay: Antibacterial activity against Micrococcus luteus MTCC 1538 after 24 hr by broth dilution method; settings: MTCC 1538, 24 h

Cc1cc(/N=C/c2cccc3ccccc23)no1
16 mm: zone of inhibition at 500 µg/mL [7] | zone of inhibition at 200 µg/mL [9] | zone of inhibition at 1000 µg/mL [10] | zone of inhibition at 200 µg/mL [15] | zone of inhibition at 200 µg/mL [28] | zone of inhibition at 100 µg/mL [37]
20 mm: zone of inhibition at 1000 µg/mL [14] | zone of inhibition at 1500 µg/mL [19] | zone of inhibition at 500 µg/mL [20] | zone of inhibition at 1500 µg/mL [42] | zone of inhibition at 1500 µg/mL [44] | zone of inhibition at 1500 µg/mL [47]
18 mm: zone of inhibition at 500 µg/mL [17] | zone of inhibition at 1500 µg/mL [27] | zone of inhibition at 1000 µg/mL [31] | zone of inhibition at 1000 µg/mL [33] | zone of inhibition at 200 µg/mL [43] | zone of inhibition at 200 µg/mL [51]
400 µg/mL: MIC [3]
200 µg/mL: MIC [41] | MIC [54]
24 mm: zone of inhibition at 1500 µg/mL [26]
22 mm: zone of inhibition at 1000 µg/mL [38]
11 mm: zone of inhibition at 100 µg/mL [48]
12 mm: zone of inhibition at 100 µg/mL [53]
15 mm: zone of inhibition at 100 µg/mL [4] | zone of inhibition at 500 µg/mL [12] | zone of inhibition at 1000 µg/mL [24] | zone of inhibition at 500 µg/mL [46] | zone of inhibition at 200 µg/mL [49]
14 mm: zone of inhibition at 200 µg/mL [13] | zone of inhibition at 100 µg/mL [34] | zone of inhibition at 500 µg/mL [52]
21 mm: zone of inhibition at 1500 µg/mL [50]
19 mm: zone of inhibition at 1000 µg/mL [2] | zone of inhibition at 1500 µg/mL [6] | zone of inhibition at 1000 µg/mL [11] | zone of inhibition at 500 µg/mL [21]
17 mm: zone of inhibition at 1000 µg/mL [1] | zone of inhibition at 500 µg/mL [36] | zone of inhibition at 1500 µg/mL [39] | zone of inhibition at 500 µg/mL [45]
300 µg/mL: MIC [8] | MIC [16] | MIC [23] | MIC [29] | MIC [30] | MIC [32]
13 mm: zone of inhibition at 100 µg/mL [5] | zone of inhibition at 100 µg/mL [18] | zone of inhibition at 200 µg/mL [22] | zone of inhibition at 100 µg/mL [25] | zone of inhibition at 200 µg/mL [35] | zone of inhibition at 100 µg/mL [40]
